Laboratory results reported in patent publication EP4141110A1 (priority 2020, dated 2021).
Several values for one entry are separate records, joined by “and”; a condition that tells them apart may be missing. Equal entries are not always repeated.

Columns and labels:
PC3 line = assay type: cell-based
mice = settings: mouse, in vivo

| SMILES | % of PC3 death in the mixture with iRGD + 6APA ligand (PC3 line) | DCL (mice) [µg/dL] | Therapeutic ratio × 10^-7 (mice) | dCL/ daggl (mice) | daggl (cell cultures) [pg/dL] |
| --- | --- | --- | --- | --- | --- |
| O=[N+]([O-])[O-].O=[N+]([O-])[O-].O=[N+]([O-])[O-].[Ga+3] [Ga(NO3)3, gallium trinitrate] | 90% and 82% and 75% | 35 | 9.2 × 10^-7 | 8 | 20 |
| O=[N+]([O-])[O-].O=[N+]([O-])[O-].[Cu+2] [Cu(NO3)2] | 85% and 82% and 65% |  | 25 × 10^-7 |  |  |
| O=[N+]([O-])[O-].O=[N+]([O-])[O-].[Zn+2] [Zn(NO3)2] |  |  | 50 × 10^-7 |  |  |
| N.N.[Cl][Pt][Cl] [cisplatin (cis-Pt(N H3)2 Cl2), cisplatin (cis-dichlorodiamminplatin) (II), reference compound] | 95% and 88% and 82% | 3.5 | 7 × 10^-7 | 5 | 2 |
| O=S(=O)(O)[S-].O=S(=O)(O)[S-].[Au].[Na+].[Na+].[Na+] [AuH2Na3O6S4, aurothiosulfate] | 75% and 70% and 56% |  | 50 × 10^-7 |  |  |
| O=C([O-])[O-].O=C([O-])[O-].O=C([O-])[O-].[Tl+3].[Tl+3] [Tl2(CO3)3] | 95% and 92% and 89% | 19 | 14.6 × 10^-7 | 0.5 | 9 |
| O=C([O-])[O-].[Tl+].[Tl+] [Tl2CO3] | 95% and 85% and 80% | 21 | 13.1 × 10^-7 | 2 | 12 |
| O=[N+]([O-])[O-].[Ag+] [AgNO3] | 80% and 75% and 65% |  | 180 × 10^-7 |  |  |
| [Na+].[O]=[V](=[O])[O-] [NaVO3] | 70% and 55% and 40% | 2.0 | 67 × 10^-7 | 1 | 1 |
| [Cl][Pt-2]([Cl])([Cl])([Cl])([Cl])[Cl].[NH4+].[NH4+] [(NH4)2[PtCl6], ammonium hexachloroplatinate (IV)] | 95% and 92% and 90% |  | 5 × 10^-7 |  |  |
